Experimental data published in BindingDB's records for doi:10.1016/s0960-894x(00)00062-7 (University of Bristol, 2000).

Test: Inhibition of 3 nM [3H]clonidine binding to rat kidney membrane imidazoline receptor I-1 in presence of rauwolscine

Structure (SMILES): N#CSc1ccc2oc(C3=NCCN3)cc2c1
- IC50: 8.1 µM
